This is an account of results in US20090143400A1, “PURINE DERIVATIVES HAVING IMMUNO-MODULATING PROPERTIES” (priority 2005, published 2009).

Molecules are shown by their SMILES. In brackets after ≈: the same amount, converted by molar mass.

One series relates to rat spleen cells. Format: cell-based.
In a further series the target is T1, human TLR7 (Homo sapiens, UniProt Q9NYK1).
T1 construct: expressed in transfected cells; host or cells: HEK293 cell line stably expressing the pNiFty2-SEAP reporter plasmid
T1 sequence (Q9NYK1 27-1049): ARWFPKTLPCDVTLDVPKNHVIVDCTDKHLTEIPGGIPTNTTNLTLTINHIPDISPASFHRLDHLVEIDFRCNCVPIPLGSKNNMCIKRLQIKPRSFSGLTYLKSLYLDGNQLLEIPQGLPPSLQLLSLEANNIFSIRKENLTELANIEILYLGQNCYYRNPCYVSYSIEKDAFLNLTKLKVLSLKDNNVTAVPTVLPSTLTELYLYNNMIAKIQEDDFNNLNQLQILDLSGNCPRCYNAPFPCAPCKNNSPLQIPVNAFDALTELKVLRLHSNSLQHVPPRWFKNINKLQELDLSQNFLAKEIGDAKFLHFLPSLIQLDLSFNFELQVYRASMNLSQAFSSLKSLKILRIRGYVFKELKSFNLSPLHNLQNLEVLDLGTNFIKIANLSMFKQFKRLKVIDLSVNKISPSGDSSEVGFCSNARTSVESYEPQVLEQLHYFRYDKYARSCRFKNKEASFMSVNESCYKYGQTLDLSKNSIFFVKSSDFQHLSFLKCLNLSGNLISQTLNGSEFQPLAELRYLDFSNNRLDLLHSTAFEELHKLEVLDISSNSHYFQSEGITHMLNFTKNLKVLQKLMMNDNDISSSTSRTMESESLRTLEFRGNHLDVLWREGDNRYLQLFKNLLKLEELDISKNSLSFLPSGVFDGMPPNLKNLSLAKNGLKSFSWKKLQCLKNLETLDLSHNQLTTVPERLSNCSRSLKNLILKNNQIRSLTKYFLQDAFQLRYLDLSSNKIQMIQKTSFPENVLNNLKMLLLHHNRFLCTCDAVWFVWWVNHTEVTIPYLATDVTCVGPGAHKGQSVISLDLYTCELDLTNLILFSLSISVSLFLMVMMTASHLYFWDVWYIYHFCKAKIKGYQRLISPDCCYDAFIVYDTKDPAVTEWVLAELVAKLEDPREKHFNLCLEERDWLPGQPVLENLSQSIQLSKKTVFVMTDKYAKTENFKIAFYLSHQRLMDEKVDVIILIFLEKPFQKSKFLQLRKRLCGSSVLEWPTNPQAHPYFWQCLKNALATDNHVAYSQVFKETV
The series is described as follows: Human TLR7 assay (HEK293 SEAP reporter). Format: cell-based. The note with it: minimal effective concentration to induce SEAP release; HEK293 with recombinant human TLR7, overnight incubation at 37° C., 0.1% DMSO. The source says: Recombinant human TLR7 was stably expressed in a HEK293 cell line already stably expressing the pNiFty2-SEAP reporter plasmid; integration of the reporter gene was maintained by selection with the antibiotic zeocin. The most common variant sequence of human TLR7 (represented by the EMBL sequence AF240467) was cloned into the mammalian cell expression vector pUNO and transfected into this reporter cell-line. Transfectants with stable expression were selected using the antibiotic blasticidin. In this reporter cell-line, expression of secreted alkaline phosphatase (SEAP) is controlled by an NFkB/ELAM-1 composite promoter comprising five NFkB sites combined with the proximal ELAM-1 promoter. TLR signaling leads to the translocation of NFkB and activation of the promoter results in expression of the SEAP gene. TLR7-specific activation was assessed by determining the level of SEAP produced following overnight incubation of the cells at 37° C. with the standard compound in the presence of 0.1% (v/v) dimethylsulfoxide (DMSO). Concentration dependent induction of SEAP production by compounds was expressed as the minimal effective concentration of compound to induce SEAP release (pMEC).

A short description of a further series: Solubility testing. Format: physicochemical. The note with it: aqueous buffer, thermodynamic from solid; 0.1 M phosphate buffer, shaken overnight at 20° C., HPLC/UV; Examples of the invention. On the procedure:
Saturated solutions for determining the solubility were prepared by placing about 0.3-3.0 ml of 0.1 M phosphare buffer in glass screw-top sample tubes along with some of the test compound. The tubes were then shaken overnight at constant temperature (20° C.). After shaking, undissolved material should be present in the solution, and more test compound should be added and shaking continued if this is not the case. The samples were then transferred to a centrifuge tube and centrifuged using a Heraeus Biofuge Fresco centrifuge at 13000 rpm for 30 minutes. The supernatant was then removed, placed in a new centrifuge tube and centrifuged again for 30 minutes at 13000 rpm. The undissolved material formed a pellet at the bottom of the tube and the liquid above the pellet was removed and was ready for assaying. The solution was then analysed using HPLC with UV quantification. A standard was also prepared by accurately weighing a sample of the test compound and dissolving it in a suitable volume of a solvent that will dissolve it completely (typically, DMSO, ethanol or methanol). This sample was then analysed by HPLC/UV.
The solubility was calculated from the observed peak areas in the HPLC/UV chromatograms along with corrections for any dilutions of the sample and differences in injection volumes. The following equation was used: […]

Regarding `CCCCOc1nc(N)c2[nH]c(=O)n(CCCN(CCCN3CCCC3)Cc3cccc(CC(=O)OC)c3)c2n1` [Example 2, Methyl (3-{[[3-(6-amino-2-butoxy-8-oxo-7,8-dihydro-9H-purin-9-yl)propyl](3-pyrrolidin-1-ylpropyl)amino]methyl}phenyl)acetate], the “Log MEC” value in the series with rat spleen cells was 9.5. Further, the pMEC at human TLR7 came out at 7.4. Further, the solubility (as a rule, the dissolved amount per volume that the medium holds) in “Solubility testing” stood at 1940 µg/mL (≈ 3500 µM).
Consider `CCCCOc1nc(N)c2[nH]c(=O)n(CCCN(CCCNC)Cc3cccc(CC(=O)OC)c3)c2n1` [Example 5, Methyl [3-({[3-(6-amino-2-butoxy-8-oxo-7,8-dihydro-9H-purin-9-yl)propyl][3-(methylamino)propyl]amino}methyl)phenyl]acetate], for which the “Log MEC” value in the series on rat spleen cells worked out at 9.5. Besides, the pMEC at human TLR7 is 7.2. In addition, in the series “Solubility testing”, the solubility came to 1820 µg/mL (≈ 3540 µM).
With `CCCCOc1nc(N)c2[nH]c(=O)n(CCCN(CCN(C)C)Cc3cccc(CC(=O)OC)c3)c2n1` [Example 4, Methyl [3-({[3-(6-amino-2-butoxy-8-oxo-7,8-dihydro-9H-purin-9-yl)propyl][2-(dimethylamino)ethyl]amino}methyl)phenyl]acetate], in the series on rat spleen cells, the “Log MEC” value is 9.5. The same compound gave a solubility in “Solubility testing” of 830 µg/mL (≈ 1620 µM).
As for `CCCCOc1nc(N)c2[nH]c(=O)n(CCCN(CCCN3CCN(C)CC3)Cc3cccc(CC(=O)OC)c3)c2n1` [Example 3, Methyl [3-({[3-(6-amino-2-butoxy-8-oxo-7,8-dihydro-9H-purin-9-yl)propyl][3-(4-methylpiperazin-1-yl)propyl]amino}methyl)phenyl]acetate], the “Log MEC” value in the series on rat spleen cells turned out to be 9.5. For the same compound, the pMEC on human TLR7 is listed as 7.7. For the same compound, the solubility in the series “Solubility testing” came out at 850 µg/mL (≈ 1460 µM).
For `CCCCOc1nc(N)c2[nH]c(=O)n(CCCCN(CCCN3CCN(C)CC3)Cc3cccc(CC(=O)OC)c3)c2n1` [Example 6, Methyl [3-({[4-(6-amino-2-butoxy-8-oxo-7,8-dihydro-9H-purin-9-yl)butyl][3-(4-methylpiperazin-1-yl)propyl]amino}methyl)phenyl]acetate], in the series on rat spleen cells, the “Log MEC” value came out at 9.0. The compound further showed a solubility in the series “Solubility testing” of 1210 µg/mL (≈ 2030 µM).
Turning to `CCCCOc1nc(N)c2[nH]c(=O)n(CCCN(CCCN(C)C)Cc3cccc(CC(=O)OC)c3)c2n1` [Example 1, Methyl [3-({[3-(6-amino-2-butoxy-8-oxo-7,8-dihydro-9H-purin-9-yl)propyl][3-(dimethylamino)propyl]amino}methyl)phenyl]acetate], the “Log MEC” value in the series on rat spleen cells is 9.5. Further, the solubility in the series “Solubility testing” was determined as 980 µg/mL (≈ 1860 µM).
